Patent US20030220415A1, “Heterocyclic amine diol compounds and their biocidal derivatives” (priority 2002, published 2003)
Where two headings read alike, the source gives them in different places.

System: Staphylococcus aureus bacteria
Details: 1957 mg/L solution, chlorine-demand-free water pH 7, ambient temperature

Q: Which “inactivation of Staphylococcus aureus” value (contact time 30 min) does the source give for `CC1(C)C(=O)N(CN(CCO)CCO)C(=O)N1Cl` [chlorinated heterocyclic amine diol, 1-chloro-3-[1-bis(N,N-2-hydroxyethyl)aminomethyl]-5,5-dimethyl-1,3-imidazolidin-2,4-dione] here?
A: > 5 logs

Q: And the “inactivation of Staphylococcus aureus” value (contact time 60 min)?
A: > 5 logs
